Here are results for 13 molecules from patent US8877927B2 (Grunenthal GmbH, priority 2006, dated 2014).

The nature of data set [1]: Liver microsomal incubations (RLM). Conditions: rat liver microsomes 0.5 mg/mL, 25 μM, NADPH, percent remaining at 1 hour. The data set is classed as in vitro ADME. (In general: Microsomes from liver hold many membrane-bound enzymes, among them those of drug oxidation.)
Experimental: (§1) Human and rat liver microsomes were purchased from BD Gentest (Woburn, Mass., USA) and β-nicotinamide adenine dinucleotide 2′-phosphate reduced tetrasodium salt (NADPH) was purchased from Sigma-Aldrich (Poole, Dorset, UK). All liver microsome incubations were carried out in 50 mM potassium phosphate buffer at pH 7.4, with a final microsomal protein concentration of 0.5 mg/mL. […] In brief, compounds were added to the incubation buffer along with the liver microsomes and incubated at 37° C. for 10 minutes. The reaction was then initiated by the addition of NADPH, previously dissolved in incubation buffer, to give a final concentration of 1 mM and re-incubated at 37° C. Aliquots were removed at 2 and 60 minutes and quenched with an equal volume of cold acetonitrile. After mixing vigorously, the precipitated protein matter was removed by filtration (Multiscreen Solvinert filter plates, Millipore, Bedford, Mass., USA) and the filtrate analysed by reverse phase HPLC with mass spectrometric detection, using single ion monitoring of the [M+H]^+ species. Metabolic turnover was determined by comparison of peak areas from the ion chromatograms of the parent compound at 2 and 60 minutes and expressed as percent remaining at 1 hour.
Data set [2] has as its target T1, Human recombinant cathepsin K (Homo sapiens, UniProt P43235).
T1 construct: purchased B. Turk, Josef, Stefan Institute, Ljubljana, Slovenia
T1 sequence (P43235 115-329): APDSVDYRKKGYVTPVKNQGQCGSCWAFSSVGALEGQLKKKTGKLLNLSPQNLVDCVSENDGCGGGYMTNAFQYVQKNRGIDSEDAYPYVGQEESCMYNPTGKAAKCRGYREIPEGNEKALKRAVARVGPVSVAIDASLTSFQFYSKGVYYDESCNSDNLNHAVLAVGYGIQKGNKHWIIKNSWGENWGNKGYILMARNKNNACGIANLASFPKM
In words: In vitro cathepsin K Ki inhibition measurement. The data set is classed as biochemical. The conditions noted are these: for Ki: recombinant human cathepsin K, read-out: In vitro Ki (nM) vs Cath K. As to the method:
Stock solutions of substrate or inhibitor were made up to 10 mM in 100% dimethylsulfoxide (DMSO) (Rathbums, Glasgow, U.K.) and diluted as appropriately required. In all cases the DMSO concentration in the assays was maintained at less than 1% (vol./vol.). The equilibrium inhibition constants (Ki^ss) for each compound were measured under steady-state conditions monitoring enzyme activity as a function of inhibitor concentration. The values were calculated on the assumption of pure competitive behaviour (Cornish-Bowden, A. Fundamentals of enzyme kinetics Portland Press; 1995, 93-128.). Human recombinant cathepsin K (0.25 nM final; B. Turk, Josef, Stefan Institute, Ljubljana, Slovenia), was routinely assayed in 100 mM sodium acetate; pH 5.5 containing 1 mM EDTA, 10 mM L-cysteine and 1.8 μM Z-Leu-Arg-AMC ([S]═KM).
The apparent inhibition constant (Ki) for each compound was determined on the basis that inhibition was reversible and occurred by a pure-competitive mechanism. The Ki values were calculated, from the dependence of enzyme activity as a function of inhibitor concentration, by direct regression analysis (Prism v 3.02) using Equation 2 (Cornish-Bowden, A., 1995.).
In situations where the apparent dissociation constant (Ki^app) approached the enzyme concentrations, the Ki^app values were calculated using a quadratic solution in the form described by Equation 3 (Morrison, J. F. Trends Biochem. Sci., 7, 102-105, 1982; Morrison, J. F. Biochim. Biophys. Acta, 185, 269-286, 1969; Stone, S. R. and Hofsteenge, J. Biochemistry, 25, 4622-4628, 1986).
In Equation 3 ‘vi’ is the observed residual activity, ‘F’ is the difference between the maximum activity (i.e. in the absence of inhibitor) and minimum enzyme activity, ‘Eo’ is the total enzyme concentration, ‘Ki^app’ is the apparent dissociation constant and ‘Io’ is the inhibitor concentration. Curves were fitted by non-linear regression analysis (Prism) using a fixed value for the enzyme concentration. Equation 4 was used to account for the substrate kinetics, where ‘Ki’ is the inhibition constant, ‘[So]’ is the initial substrate concentration and ‘KM^app’ is the apparent macroscopic binding (Michaelis) constant for the substrate (Morrison, 1982).

Data set [3] is described as follows: Plasma incubations (rat plasma stability). The format is in vitro ADME. Conditions: 25 μM, 37° C., percent remaining at 1 hour.
Experimental: (§2) Human and rat plasma were purchased from Innovative Research Inc. (Southfield. Mich., USA). […] Aliquots were removed at 2 and 60 minutes and quenched with an equal volume of cold acetonitrile. After mixing vigorously, the precipitated protein matter was removed by filtration (Multiscreen Solvinert filter plates, Millipore, Bedford, Mass., USA) and the filtrate analysed by reverse phase HPLC with mass spectrometric detection, using single ion monitoring of the [M+H]^+ species. Metabolic turnover was determined by comparison of peak areas from the ion chromatograms of the parent compound at 2 and 60 minutes and expressed as percent remaining at 1 hour.
A short description of data set [4]: Plasma incubations (human plasma stability). The format is in vitro ADME. Conditions: 25 μM, 37° C., percent remaining at 1 hour.
Experimental: as §2
The nature of data set [5]: Liver microsomal incubations (HLM). The data set is classed as in vitro ADME. The conditions noted are these: human liver microsomes 0.5 mg/mL, 25 μM, NADPH, percent remaining at 1 hour.
Experimental: as §1
The nature of data set [6]: Rat pharmacokinetics (oral bioavailability, clearance). The data set is classed as in vivo. The conditions noted are these: for reduction in clearance: compared to prior art compound 42; for clearance / bioavailability: in vivo; for bioavailability: oral, read-out: Rat Oral Bioavailability (% F).
Where [7] appears, read: compared to prior art compound 11.
[8] abbreviates: compared to prior art compound 42.

Regarding `CN1CCN(c2nc(-c3ccc(C(=O)N[C@H](C(=O)N4CC[C@H]5OCC(=O)[C@H]54)C4CCCC4)cc3)cs2)CC1` [prior art compound 13], the “RLM % rem. @ 1 hr” value in data set [1] was determined as 4.3%. In addition, in data set [2] (setting [7]), the “improvement in in vitro potency against recombinant human cathepsin K” value (“improvement in in vitro potency” for short) is recorded as “only minor improvement”. Moreover, the “Rat Plasma Stability % rem. @ 1 h” value in data set [3] came out at 93%. The “Human Plasma Stability % rem. @ 1 h” value in data set [4] came to 82.5%. In data set [5], the “HLM % rem. @ 1 hr” value stood at 79.4%.
Regarding `CC(C)C[C@H](NC(=O)c1ccc(N2CCN(C)CC2)cc1)C(=O)N1C[C@@H](Cl)[C@H]2OCC(=O)[C@H]21` [prior art compound 14], in data set [1] (listed as drawing 58), the “RLM % rem. @ 1 hr” value turned out to be 85.5%. Moreover, the Ki in data set [2] came out at 1.8 nM. The “Rat Plasma Stability % rem. @ 1 h” value in data set [3] (listed as drawing 58) was determined as 92.8%. Further, in data set [4] (listed as drawing 58), the “Human Plasma Stability % rem. @ 1 h” value is 85.5%. Besides, in data set [5] (listed as drawing 58), the “HLM % rem. @ 1 hr” value came to 84.8%.
With `CN1CCN(c2ccc(C(=O)N[C@H](C(=O)N3CC(F)[C@H]4OCC(=O)[C@H]43)C3CCCCC3)cc2)CC1` (stereo in doubt) [Example 2, N—((S)-1-cyclohexyl-2-((3aS,6S,6aS)-6-fluoro-3-oxodihydro-2H-furo[3,2-b]pyrrol-4(5H,6H,6aH)-yl)-2-oxoethyl)-4-(4-methylpiperazin-1-yl)benzamide], in data set [6], the reduction in clearance stood at 68%, the clearance worked out at 25 mL/min/kg and the bioavailability stood at 80%. In data set [1], the “RLM % rem. @ 1 hr” value was 73.3%. Besides, in data set [2], the Ki worked out at 14.9 nM. In addition, the “Rat Plasma Stability % rem. @ 1 h” value in data set [3] is on record as 100%. In data set [4], the “Human Plasma Stability % rem. @ 1 h” value was 93.1%. Moreover, in data set [5], the “HLM % rem. @ 1 hr” value came out at 98.2%.
Take `CN1CCN(c2ccc(C(=O)N[C@H](C(=O)N3CC[C@H]4OCC(=O)[C@H]43)C3CCCC3)cc2)CC1` [prior art compound 12]: in data set [6], the reduction in clearance came out at 29%, the clearance is 56 mL/min/kg and the bioavailability was determined as 45%. For the same molecule, the “RLM % rem. @ 1 hr” value in data set [1] was found to be 93.9%. The “improvement in in vitro potency” value in data set [2] (setting [8]) is 5 fold. The Ki in data set [2] was 1.8 nM. In addition, the “Rat Plasma Stability % rem. @ 1 h” value in data set [3] was found to be 94.1%. Further, the “Human Plasma Stability % rem. @ 1 h” value in data set [4] is given as 97.2%. For the same molecule, the “HLM % rem. @ 1 hr” value in data set [5] stood at 91.2%.
Turning to `CC(C)C[C@H](NC(=O)c1ccc(-c2csc(N3CCN(C)CC3)n2)cc1)C(=O)N1C[C@@H](F)[C@H]2OCC(=O)[C@H]21` [prior art compound 8.19], the “RLM % rem. @ 1 hr” value in data set [1] was found to be 4.4%. Also, the “improvement in in vitro potency” value in data set [2] (setting [7]) is “only minor improvement”. Also, the Ki in data set [2] was 1.5 nM. The “Rat Plasma Stability % rem. @ 1 h” value in data set [3] was determined as 90.2%. Moreover, in data set [4], the “Human Plasma Stability % rem. @ 1 h” value is recorded as 70.2%. The “HLM % rem. @ 1 hr” value in data set [5] was found to be 66.7%.
With `CN1CCN(c2nc(-c3ccc(C(=O)N[C@H](C(=O)N4C[C@@H](F)[C@H]5OCC(=O)[C@H]54)C4CCCC4)cc3)cs2)CC1` [Example 7], in data set [1], the “RLM % rem. @ 1 hr” value turned out to be 3.5%. Besides, in data set [2], the Ki turned out to be 0.9 nM. For the same molecule, the “Rat Plasma Stability % rem. @ 1 h” value in data set [3] worked out at 88%. Moreover, the “Human Plasma Stability % rem. @ 1 h” value in data set [4] came out at 96.3%. The “HLM % rem. @ 1 hr” value in data set [5] amounted to 74%.
Regarding `CN1CCN(c2ccc(C(=O)N[C@H](C(=O)N3C[C@H](F)[C@H]4OCC(=O)[C@H]43)C3CCCC3)cc2)CC1` [Example 1, N—((S)-1-cyclopentyl-2-((3aS,6S,6aS)-6-fluoro-3-oxodihydro-2H-furo[3,2-b]pyrrol-4(5H,6H,6aH)-yl)-2-oxoethyl)-4-(4-methylpiperazin-1-yl)benzamide], in data set [6], the reduction in clearance is 71%, the clearance amounted to 23 mL/min/kg and the bioavailability is 88%. Further, the “RLM % rem. @ 1 hr” value in data set [1] stood at 82%. Further, the “improvement in in vitro potency” value in data set [2] (setting [8]) was 5 fold. Moreover, in data set [2], the Ki is 1.7 nM. Also, in data set [3], the “Rat Plasma Stability % rem. @ 1 h” value stood at 95.9%. The “Human Plasma Stability % rem. @ 1 h” value in data set [4] is recorded as 96.4%. In addition, the “HLM % rem. @ 1 hr” value in data set [5] is given as 100%.
Consider `CC(C)C[C@H](NC(=O)c1ccc(N2CCN(C)CC2)cc1)C(=O)N1C[C@@H](Cl)[C@H]2OCC(=O)[C@H]21` [prior art compound 15], for which, in data set [1] (listed as drawing 59), the “RLM % rem. @ 1 hr” value stood at 81.6%. Further, the Ki in data set [2] is 3.7 nM. In addition, in data set [3] (listed as drawing 59), the “Rat Plasma Stability % rem. @ 1 h” value is 88.9%. In data set [4] (listed as drawing 59), the “Human Plasma Stability % rem. @ 1 h” value is on record as 90.3%. The “HLM % rem. @ 1 hr” value in data set [5] (listed as drawing 59) amounted to 80.3%.
On to `CN1CCN(c2ccc(C(=O)N[C@H](C(=O)N3CC(Cl)[C@H]4OCC(=O)[C@H]43)C3CCCC3)cc2)CC1` (stereo in doubt) [Example 5, N—((S)-2-((3aS,6S,6aS)-6-chloro-3-oxodihydro-2H-furo[3,2-b]pyrrol-4(5H,6H,6aH)-yl)-1-cyclopentyl-2-oxoethyl)-4-(4-methylpiperazin-1-yl)benzamide], for which, in data set [6], the clearance came out at 107 mL/min/kg and the bioavailability worked out at 37%. Moreover, the “RLM % rem. @ 1 hr” value in data set [1] is 81.3%. The “improvement in in vitro potency” value in data set [2] (setting [8]) is given as 17 fold. Moreover, the “increase in in vitro potency against recombinant human cathepsin K” value in data set [2] (compared to the direct (S)-leucine analogue (14)) stood at 3.5 fold. The Ki in data set [2] came out at 0.5 nM. For the same molecule, the “Rat Plasma Stability % rem. @ 1 h” value in data set [3] stood at 96.6%. Further, in data set [4], the “Human Plasma Stability % rem. @ 1 h” value stood at 97.4%. Also, in data set [5], the “HLM % rem. @ 1 hr” value was 85.6%.
As for `CC(C)C[C@H](NC(=O)c1ccc(N2CCN(C)CC2)cc1)C(=O)N1C[C@@H](F)[C@H]2OCC(=O)[C@H]21` [prior art compound 10], in data set [6], the reduction in clearance result is “no effect”, the clearance turned out to be 81 mL/min/kg and the bioavailability was found to be 40%. In addition, in data set [1], the “RLM % rem. @ 1 hr” value was determined as 93.6%. Moreover, the “improvement in in vitro potency” value in data set [2] (setting [8]) stood at 2.4 fold. For the same molecule, the Ki in data set [2] is 3.6 nM. Also, the “Rat Plasma Stability % rem. @ 1 h” value in data set [3] amounted to 94.2%. Further, the “Human Plasma Stability % rem. @ 1 h” value in data set [4] is 100%. For the same molecule, in data set [5], the “HLM % rem. @ 1 hr” value worked out at 96.8%.
Consider `CC(C)C[C@H](NC(=O)c1ccc(N2CCN(C)CC2)cc1)C(=O)N1CC[C@H]2OCC(=O)[C@H]21` [prior art compound 42], for which, in data set [6], the clearance was determined as 79 mL/min/kg and the bioavailability is 31.5%. The “RLM % rem. @ 1 hr” value in data set [1] amounted to 76.6%. Moreover, the “Rat Plasma Stability % rem. @ 1 h” value in data set [3] worked out at 84.2%. The “Human Plasma Stability % rem. @ 1 h” value in data set [4] is recorded as 95%. In addition, in data set [5], the “HLM % rem. @ 1 hr” value worked out at 95%.
On to `CC(C)C[C@H](NC(=O)c1ccc(-c2csc(N3CCN(C)CC3)n2)cc1)C(=O)N1CC[C@H]2OCC(=O)[C@H]21` [prior art compound 11], for which the “RLM % rem. @ 1 hr” value in data set [1] is 4.8%. Moreover, the “Rat Plasma Stability % rem. @ 1 h” value in data set [3] is on record as 88.6%. In data set [4], the “Human Plasma Stability % rem. @ 1 h” value came to 92.6%. Moreover, in data set [5], the “HLM % rem. @ 1 hr” value was found to be 82.6%.
Regarding `CN1CCN(c2nc(-c3ccc(C(=O)N[C@H](C(=O)N4C[C@@H](Cl)[C@H]5OCC(=O)[C@H]54)C4CCCC4)cc3)cs2)CC1` [Example 8], in data set [1], the “RLM % rem. @ 1 hr” value was 7.7%. Also, the Ki in data set [2] is 0.3 nM. The “Rat Plasma Stability % rem. @ 1 h” value in data set [3] amounted to 85.1%. The “Human Plasma Stability % rem. @ 1 h” value in data set [4] is 96%. Further, in data set [5], the “HLM % rem. @ 1 hr” value turned out to be 54.1%.

The term Ki denotes a dissociation constant, usually derived from enzyme kinetics or from competition with a known ligand. In general, bioavailability refers to dose-corrected exposure relative to a reference, in per cent.
